Data from paper PMC6308159 (Frontiers in Public Health, 2018).
“And” between values parts separate entries of the source, which are not always exact repeats. Identical values can stand only once. Like-named read-outs stand apart in the source and are kept apart here.

Assays:
[1] = tested on: primary human endothelial colony-forming cells (ECFCs), cord blood clones
[2] = tested on: primary human endothelial colony-forming cells (ECFCs), cord blood clones; assay: cells; details: read-out: IC50, range between individual ECFC clones
[3] = cited from earlier work
in vitro = details: human
[4] = tested on: polyclonal ECFC line CB002; format: cell-based, human; details: 0.390625 μM; 48 h
[5] = read-out: IC50, range between individual ECFC clones

CC1=C(C/C=C(\C)CCC[C@H](C)CCC[C@H](C)CCCC(C)C)C(=O)c2ccccc2C1=O [Phytonadione, phytonadione, reference compound]
effect on ECFC viability / toxicity [1]: not toxic

O.[Cl][Cd][Cl] [CdCl2, Cadmium Chloride Hydrate]
IC10, range between individual ECFC clones [1]: 4.2 to 9.3 µM
average IC10 (mean and standard deviation) [1]: 6.7 ± 1.85 µM
cells killed [1]: ~100%
cytotoxicity [1]: not cytotoxic
IC50 [1, 5]: 12.3 to 18 µM

O.O.O.O.O.O.O.O=[As]([O-])([O-])O.[Na+].[Na+] [Na2HAsO4, Sodium arsenate dibasic heptahydrate]
cells killed [1]: 0%
effect on ECFC viability / toxicity [1]: no effect

CC1=CC(=O)c2ccccc2C1=O [Menadione, 2-methyl-1,4-naphthoquinone, reference compound]
IC10, range between individual ECFC clones [1]: 5.6 to 19.0 µM
average IC10 (mean and standard deviation) [1]: 11.5 ± 5.03 µM
cells killed [1]: 100%
live cells [1]: < 50%
IC50 [2]: 8 to 26.3 µM
blood level ([3]; observed in a clinical setting): 500 to 2000 nM
level found in the blood ([3]; volunteers after ingestion of 10 mg menadione sodium bisulfite tablets): 20 nM
viability at 10 µM (in vitro): 100%

CCC[CH2][Sn]([Cl])([CH2]CCC)[CH2]CCC [TBT, Tributyltin Chloride]
IC10, range between individual ECFC clones [1]: 0.2 to 0.5 µM
average IC10 (mean and standard deviation) [1]: 0.3 ± 0.11 µM
IC50 [1, 5]: 1.2 to 2.3 µM

[Cl-].[Cl-].[Zn+2] [ZnCl2, Zinc Chloride]
cytotoxicity [1]: cytotoxic
effect on viability [1]: did not affect viability

O=[As][O-].[Na+] [NaAsO2, Sodium (meta)arsenite]
raw CFDA fluorescence per well [4]: 4689 and 4248 and 2550 and 2844 and 2369 and 3435
IC10, range between individual ECFC clones [1]: 1.1 to 5.0 µM
average IC10 (mean and standard deviation) [1]: 2.4 ± 1.16 µM
cells killed [1]: 100%
IC50 ([1]; read-out: IC50 ± SD): 7.5 ± 4.7 µM
